Assays:
c-KIT kinase = c-KIT kinase (Homo sapiens, UniProt P10721); test: c-KIT kinase Assay; type: biochemical; parameters: cKIT residues T544-V976; GST (N); TEV cleavage site (internal); purchased deCODE Biostructures; details: enzymatic assay, ATP 200 µM; read-out: KIT (wt) IC50
Description: In this assay, the oxidation of NADH (measured by decrease in absorbance at 340 nm) was continuously monitored spectrophotometrically. […] The absorption at 340 nm was monitored continuously for 2 hours at 30 °C on Synergy 2 (BioTeK). The reaction rate was calculated using the 0 to 1 h time frame. Percent inhibition was obtained by comparison of reaction rate with that of a control (i.e. with no test compound). IC50 values were calculated from a series of percent inhibition values determined at a range of inhibitor concentrations using software routines as implemented in the GraphPad Prism software package. The protein construct was prepared by deCODE Biostructures using procedures known in the art. The construct contains […] of cKit, an N-terminal tag, a GST-fusion sequence and a TEV cleavage site. [formula]

c-KIT V654A kinase = biological target: T1, c-KIT V654A kinase (Homo sapiens, UniProt P10721, V654A); test: c-KIT V654A Kinase Assay; type: biochemical; details: enzymatic assay, ATP 200 µM
T1 construct: residues T544-V976 with N-terminal GST fusion; purchased deCODE Biostructures
Description: (§1) In this assay, the oxidation of NADH (measured by decrease in absorbance at 340 nm) was continuously monitored spectrophotometrically. […] The inhibition reaction was started by mixing serial diluted test compound with the above reaction mixture. The absorption at 340 nm was monitored continuously for 6 hours at 30 °C on Synergy 2 plate reader (BioTech).
(§2) The protein construct was prepared by deCODE Biostructures using procedures known in the art. The construct contains residues T544-V976 of cKit, an N-terminal tag, a GST-fusion sequence and a TEV cleavage site. This construct is identical to Seq ID no.

c-KIT D816H kinase = biological target: T2, c-KIT D816H kinase (Homo sapiens, UniProt P10721, D816H); test: c-KIT D816H Kinase Assay; type: biochemical; details: enzymatic assay, ATP 200 µM
T2 construct: The construct contains residues T544-V976 of cKit; GST (N); TEV cleavage site (internal); purchased deCODE Biostructures
Description: as §1, with “(BioTech). […] The protein construct was prepared by deCODE Biostructures using procedures known in the art. The construct contains […] of cKit, an N-terminal tag, a GST-fusion sequence and a TEV cleavage site. This construct is identical to Seq ID no.” for “(BioTech).”

c-KIT D816V kinase = biological target: T3, c-KIT D816V kinase (Homo sapiens, UniProt P10721, D816V); test: c-KIT D816V kinase Assay; type: biochemical; details: enzymatic assay, ATP 200 uM
T3 construct: residues T544-V976 with N-terminal GST fusion; purchased deCODE Biostructures
Description: as §1, with “5” for “6”
as §2

c-KIT T670I kinase = biological target: T4, c-KIT T670I kinase (Homo sapiens, UniProt P10721, T670I); test: c-KIT T670I kinase assay; type: biochemical; details: enzymatic assay
T4 construct: The construct contains residues T544-V976 of cKit; GST (N); TEV cleavage site (internal); purchased deCODE Biostructures
Description: In this assay, the oxidation of NADH (measured by decrease in absorbance at 340 nm) was continuously monitored spectrophotometrically. […] The inhibition reaction was started by mixing serial diluted test compound with the above reaction mixture. The absorption at 340 nm was monitored continuously for 5 hours at 30 °C on Synergy 2 plate reader (BioTech). […] The protein construct was prepared by deCODE Biostructures using procedures known in the art. The construct contains […] of cKit, an N-terminal tag, a GST-fusion sequence and a TEV cleavage site. This construct is identical to Seq ID no. 1 except for the T670I mutation. [formula] [formula]

GIST T1 cells = test: GIST T1 Cell Proliferation Assay; type: cell-based; details: Homo sapiens, GISTT1, 72 h, 68 hours + 4 hours resazurin
Description: GIST48, GIST430, and GIST882 cells were obtained from J. Fletcher (Brigham and Women's Hospital, Boston, MA). GIST T1 cells were obtained from B. Rubin (Cleveland Clinic, Cleveland, OH) and Professor Takahiro Taguchi (Kochi Medical School, Nankoku, Kochi, Japan). Briefly, GIST48 and GIST 882 cells were grown in RPMI 1640 medium supplemented with 15% characterized fetal bovine serum (Invitrogen, Carlsbad, CA), 1 unit/mL penicillin G, 1 µg/ml streptomycin, and 0.29 mg/mL L-glutamine at 37 °C, 5% CO2, and 95% humidity. GIST430 cells were grown in Ham's F10 medium supplemented with 15% characterized fetal bovine serum (Invitrogen, Carlsbad, CA), 30 mg/L bovine pituitary extract (BD Biosciences, San Jose, CA), 0.5% Mito+ serum extender (BD Biosciences, San Jose, CA), 1 unit/mL penicillin G, 1 µg/ml streptomycin, and 0.29 mg/mL L-glutamine at 37 °C, 5%CO2, 95% humidity. GIST T1 cells were grown in DMEM medium supplemented with 10% characterized fetal bovine serum (Invitrogen, Carlsbad, CA), 1 unit/mL penicillin G, 1 µg/ml streptomycin, and 0.29 mg/mL L-glutamine at 37 °C, 5% CO2, and 95% humidity.
A serial dilution of test compound was dispensed into a 384-well black clear bottom plate (Corning, Corning, NY). One thousand two-hundred fifty cells were added per well in 50 µL complete growth medium. Plates were incubated for 68 hours at 37 °C, 5% CO2, 95% humidity. At the end of the incubation period 10 µL of a 440 µM solution of resazurin (Sigma, St. Louis, MO) in PBS was added to each well and incubated for an additional 4 hours at 37 °C, 5% CO2, 95% humidity. Plates were read on a Synergy2 reader (Biotek, Winooski, VT) using an excitation of 540 nm and an emission of 600 nm.

T1 sequence (P10721 544-976 V654A): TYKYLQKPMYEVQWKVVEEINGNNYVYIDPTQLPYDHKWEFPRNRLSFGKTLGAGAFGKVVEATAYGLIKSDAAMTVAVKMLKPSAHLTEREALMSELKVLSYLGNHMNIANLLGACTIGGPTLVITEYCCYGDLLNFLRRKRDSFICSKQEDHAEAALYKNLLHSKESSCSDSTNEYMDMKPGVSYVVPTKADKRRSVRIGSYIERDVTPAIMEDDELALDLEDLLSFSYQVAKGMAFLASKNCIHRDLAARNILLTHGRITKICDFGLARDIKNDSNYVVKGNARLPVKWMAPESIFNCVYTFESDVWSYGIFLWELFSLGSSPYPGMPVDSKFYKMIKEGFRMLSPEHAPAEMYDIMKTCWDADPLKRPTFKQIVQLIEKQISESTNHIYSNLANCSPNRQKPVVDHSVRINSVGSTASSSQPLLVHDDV
T2 sequence (P10721 544-976 D816H): as the sequence (P10721 544-976 V654A) above, with A111V, D273H counted along it
T3 sequence (P10721 544-976 D816V): as the sequence (P10721 544-976 V654A) above, with A111V, D273V counted along it
c-KIT kinase, sequence (P10721 544-976): as the sequence (P10721 544-976 V654A) above, with A111V counted along it
T4 sequence (P10721 544-976 T670I): as the sequence (P10721 544-976 V654A) above, with A111V, T127I counted along it

| IC50 (c-KIT kinase) | IC50 (c-KIT V654A kinase) | IC50 (c-KIT D816H kinase) | IC50 (c-KIT D816V kinase) | IC50 (c-KIT T670I kinase) | Compound | IC50 (GIST T1 cells) |
| --- | --- | --- | --- | --- | --- | --- |
| 10 to 100 nM | 10 to 100 nM | 10 to 100 nM | < 10 nM | 10 to 100 nM | CC(C)n1c(=O)c(-c2cc(NC(=O)Nc3ccccc3)c(F)cc2Cl)cc2cnc(NC(=O)N(C)C)cc21 [Example 103, 3-(3-(2-chloro-4-fluoro-5-(3-phenylureido)phenyl)-1-isopropyl-2-oxo-1,2-dihydro-1,6-naphthyridin-7-yl)-1,1-dimethylurea] | 10 to 100 nM |
| < 10 nM | 10 to 100 nM | 10 to 100 nM | 10 to 100 nM | 10 to 100 nM | CCn1c(=O)c(-c2cc(NC(=O)Nc3ccccc3)c(F)cc2Cl)cc2cnc(NC(=O)N3CC[C@H](N(C)C)C3)cc21 [Example 96, (S)-N-(3-(2-chloro-4-fluoro-5-(3-phenylureido)phenyl)-1-ethyl-2-oxo-1,2-dihydro-1,6-naphthyridin-7-yl)-3-(dimethylamino)pyrrolidine-1-carboxamide] | < 10 nM |
| 10 to 100 nM | 10 to 100 nM | < 10 nM | 10 to 100 nM | 10 to 100 nM | CCn1c(=O)c(-c2cc(NC(=O)Nc3cccc(F)c3)c(F)cc2C)cc2cnc(NC(=O)N(C)C)cc21 [Example 106, 3-(1-ethyl-3-(4-fluoro-5-(3-(3-fluorophenyl)ureido)-2-methylphenyl)-2-oxo-1,2-dihydro-1,6-naphthyridin-7-yl)-1,1-dimethylurea] | < 10 nM |
| 10 to 100 nM | 100 to 1000 nM | 10 to 100 nM | 100 to 1000 nM | 10 to 100 nM | CCn1c(=O)c(-c2cc(NC(=O)Nc3ccc(F)c(CN4CCN(C)CC4)c3)c(F)cc2C)cc2cnc(N)cc21 [Example 93, 1-(5-(7-amino-1-ethyl-2-oxo-1,2-dihydro-1,6-naphthyridin-3-yl)-2-fluoro-4-methylphenyl)-3-(4-fluoro-3-((4-methylpiperazin-1-yl)methyl)phenyl)urea] | 10 to 100 nM |
| 10 to 100 nM | 10 to 100 nM | 10 to 100 nM | < 10 nM | 10 to 100 nM | CC(C)n1c(=O)c(-c2cc(NC(=O)Nc3cccc(F)c3)c(F)cc2Cl)cc2cnc(NC(=O)N(C)C)cc21 [Example 98, 3-(3-(2-chloro-4-fluoro-5-(3-(3-fluorophenyl)ureido)phenyl)-1-isopropyl-2-oxo-1,2-dihydro-1,6-naphthyridin-7-yl)-1,1-dimethylurea] | < 10 nM |
| 10 to 100 nM | 100 to 1000 nM | 10 to 100 nM | 10 to 100 nM | 10 to 100 nM | CCn1c(=O)c(-c2cc(NC(=O)Nc3csc4ccccc34)c(F)cc2C)cc2cnc(NC(=O)N(C)C)cc21 [Example 104, 3-(3-(5-(3-(benzo[b]thiophen-3-yl)ureido)-4-fluoro-2-methylphenyl)-1-ethyl-2-oxo-1,2-dihydro-1,6-naphthyridin-7-yl)-1,1-dimethylurea] | 10 to 100 nM |
| 10 to 100 nM | 100 to 1000 nM | 100 to 1000 nM | 100 to 1000 nM | 100 to 1000 nM | CCn1c(=O)c(-c2cc(NC(=O)Nc3ccc(F)c(CN4CCN(C)CC4)c3)c(F)cc2C)cc2cnc(NC=O)cc21 [Example 100, N-(1-ethyl-3-(4-fluoro-5-(3-(4-fluoro-3-((4-methylpiperazin-1-yl)methyl)phenyl)ureido)-2-methylphenyl)-2-oxo-1,2-dihydro-1,6-naphthyridin-7-yl)formamide] | 10 to 100 nM |
| 10 to 100 nM | 10 to 100 nM | 10 to 100 nM | 10 to 100 nM | 10 to 100 nM | CCn1c(=O)c(-c2cc(NC(=O)Nc3ccccc3)c(F)cc2Br)cc2cnc(NC(=O)N(C)C)cc21 [Example 105, 3-(3-(2-bromo-4-fluoro-5-(3-phenylureido)phenyl)-1-ethyl-2-oxo-1,2-dihydro-1,6-naphthyridin-7-yl)-1,1-dimethylurea] | < 10 nM |

— patent publication EP3722296B1, “DIHYDRONAPHTHYRIDINES AND RELATED COMPOUNDS USEFUL AS KINASE INHIBITORS FOR THE TREATMENT OF PROLIFERATIVE DISEASES” (Deciphera Pharmaceuticals, LLC, priority 2012, dated 2013)
